Source: the NIST ThermoML archive (doi:10.1021/je400536f)

Tests used:
[1] = mn = molality of the nth substance listed, in mol/kg; conditions: 298.15 K, 100 kPa, Liquid, dip-type immersion conductivity cell
[2] = 298.15 K, 100 kPa, Liquid; for viscosity: Concentric cylinders viscometry; for mass density: Vibrating tube method

CCCC[N+](CCCC)(CCCC)CCCC.[O-][Cl+3]([O-])([O-])[O-] [tetrabutylammonium perchlorate] + CNC=O
[1]
Conditions | molar conductivity [S·m2/mol]
m1 = 0.000795 | 0.00449
m1 = 0.001513 | 0.00423
m1 = 0.002025 | 0.00407
m1 = 0.002735 | 0.00389
m1 = 0.003295 | 0.00371
m1 = 0.003956 | 0.00358
m1 = 0.004802 | 0.00342
m1 = 0.005388 | 0.00333
m1 = 0.006053 | 0.00323
m1 = 0.006823 | 0.00309
m1 = 0.007832 | 0.00293
m1 = 0.008798 | 0.00279

CCCC[N+](CCCC)(CCCC)CCCC.[O-][Cl+3]([O-])([O-])[O-] [tetrabutylammonium perchlorate] + NC=O
[1]
Conditions | molar conductivity [S·m2/mol]
m1 = 0.000807 | 0.00312
m1 = 0.001498 | 0.0029
m1 = 0.002061 | 0.00278
m1 = 0.002673 | 0.00264
m1 = 0.003238 | 0.00255
m1 = 0.003856 | 0.00244
m1 = 0.004665 | 0.00231
m1 = 0.005242 | 0.00224
m1 = 0.006209 | 0.00212
m1 = 0.007157 | 0.00202
m1 = 0.00801 | 0.00196
m1 = 0.008612 | 0.00189

CCCC[N+](CCCC)(CCCC)CCCC.[O-][Cl+3]([O-])([O-])[O-] [tetrabutylammonium perchlorate] + C[N+](=O)[O-]
[1]
Conditions | molar conductivity [S·m2/mol]
m1 = 0.000864 | 0.0101
m1 = 0.001347 | 0.0098
m1 = 0.001806 | 0.00954
m1 = 0.00243 | 0.00927
m1 = 0.002992 | 0.00899
m1 = 0.003528 | 0.00879
m1 = 0.004186 | 0.00854
m1 = 0.004998 | 0.00831
m1 = 0.005715 | 0.00809
m1 = 0.006642 | 0.00777
m1 = 0.007639 | 0.00753
m1 = 0.008668 | 0.00731

CCCC[N+](CCCC)(CCCC)CCCC.F[B-](F)(F)F [tetrabutylammonium tetrafluoroborate] + C[N+](=O)[O-]
[1]
Conditions | molar conductivity [S·m2/mol]
m1 = 0.000773 | 0.00833
m1 = 0.001303 | 0.00794
m1 = 0.001731 | 0.00765
m1 = 0.002372 | 0.00735
m1 = 0.002927 | 0.00709
m1 = 0.003576 | 0.00684
m1 = 0.004134 | 0.0066
m1 = 0.004914 | 0.0064
m1 = 0.005655 | 0.00617
m1 = 0.006577 | 0.00594
m1 = 0.007569 | 0.00568
m1 = 0.008556 | 0.00543

CCCC[N+](CCCC)(CCCC)CCCC.F[B-](F)(F)F [tetrabutylammonium tetrafluoroborate] + NC=O
[1]
Conditions | molar conductivity [S·m2/mol]
m1 = 0.000829 | 0.00215
m1 = 0.001452 | 0.00203
m1 = 0.002025 | 0.00192
m1 = 0.002632 | 0.00183
m1 = 0.003181 | 0.00175
m1 = 0.003782 | 0.00167
m1 = 0.00457 | 0.00158
m1 = 0.005291 | 0.0015
m1 = 0.006131 | 0.00143
m1 = 0.007056 | 0.00134
m1 = 0.007921 | 0.00125
m1 = 0.008482 | 0.00119

NC=O [formamide]
[2]
Conditions | mass density [kg/m3] | viscosity [mPa·s]
– | 1129.22 | 3.3

CCCC[N+](CCCC)(CCCC)CCCC.F[B-](F)(F)F [tetrabutylammonium tetrafluoroborate] + CNC=O
[1]
Conditions | molar conductivity [S·m2/mol]
m1 = 0.000795 | 0.00352
m1 = 0.001513 | 0.00331
m1 = 0.002025 | 0.00314
m1 = 0.002735 | 0.00299
m1 = 0.003295 | 0.00286
m1 = 0.003956 | 0.00275
m1 = 0.004802 | 0.00262
m1 = 0.005388 | 0.00253
m1 = 0.006053 | 0.0024
m1 = 0.007327 | 0.00223
m1 = 0.007832 | 0.00216
m1 = 0.008798 | 0.00204

CNC=O [N-methylformamide]
[2]
Conditions | mass density [kg/m3] | viscosity [mPa·s]
– | 997.61 | 1.65

C[N+](=O)[O-] [nitromethane]
[2]
Conditions | mass density [kg/m3] | viscosity [mPa·s]
– | 1130.15 | 0.62
